Measurements published in patent US20080305038A1, “Transport of Nano-and Macromolecular Structures Into Cytoplasm and Nucleus of Cells” (LUDWIG-MAXIMILIANS-UNIVERSITÄT, priority 2005, published 2008).

How the values were obtained:
[1] = Influence of TP-modification on activity of β-galactosidase; format: biochemical
Protocol: (§1) Analogous to sections 2.1 to 2.3 above the enzyme β-galactosidase was modified with TP. […] Subsequent to modification HepG2 cells were incubated with (TP) modified β-galactosidase (5 μM) for 1 h or 24 h and then fixed in paraformaldehyde. β-galactosidase activity was visualized by using X-Gal (see FIG. 6).

HepG2 cells = assay: Uptake of β-galactosidase, activity visualized by X-Gal; format: cell-based; details: 5 μM
Protocol: as §1

FITC-β-galactosidase-TP: enzyme β-galactosidase modified with thiopyridyl via SPDP, conjugation degree about 1
influence of TP-modification on activity of β-galactosidase [1]: does not exhibit any influence on activity of β-galactosidase
cellular uptake of β-galactosidase (HepG2 cells; 1 h or 24 h): uptake of β-galactosidase into cytoplasm and nucleus into many cells
nuclear uptake of β-galactosidase (HepG2 cells; 1 h or 24 h): uptake of β-galactosidase into cytoplasm and nucleus into many cells
nuclear uptake of β-galactosidase (HepG2 cells; 1 h or 24 h, listed as (TP) modified β-galactosidase): clearly observable
positive cells and nucleoli (HepG2 cells; 24 h incubation): almost all cells and their nucleoli showed a positive signal
